Target: T1, Na^+/H^+-Exchangers von Kaninchenerythrocyten (Oryctolagus cuniculus, UniProt P23791)
T1 construct: den Na^+-Influx in die Erythrocyten via Na^+/H^+-Austausch flammenphotometrisch bestimmen zu können; from tissue; host or cells: Erythrocytes in whole blood from the ear arteries of cholesterol-fed White New Zealand rabbits (Ivanovas)
Experiment: Inhibition of the Na+/H+ exchanger of rabbit erythrocytes (amiloride-sensitive sodium influx, flame photometry)
Type: cell-based, Weiße Neuseeland-Kaninchen
Settings: Inhibition des Na^+/H^+-Exchangers, hyperosmolares Salz-Sucrose-Medium, pH 7,4, 37°C
From the text: Inhibition des Na^+/H^+-Exchangers von Kaninchenerythrocyten Weiße Neuseeland-Kaninchen (Ivanovas) erhielten eine Standard-Diät mit 2 % Cholesterin für sechs Wochen, um den Na^+/H^+-Austausch zu aktivieren und so den Na^+-Influx in die Erythrocyten via Na^+/H^+-Austausch flammenphotometrisch bestimmen zu können. Das Blut wurde den Ohrarterien entnommen und durch 25 IE Kalium-Heparin ungerinnbar gemacht. Ein Teil jeder Probe wurde zur Doppelbestimmung des Hämatokrits durch Zentrifugieren benutzt. Aliquots von jeweils 100 µl dienten zur Messung des Na^+-Ausgangsgehalts der Erythrocyten.
Um den Amilorid-sensitiven Natrium-Influx zu bestimmen, wurden 100 µl jeder Blutprobe in jeweils 5 ml eines hyperosmolaren Salz-Sucrose-Mediums (mmol/l: 140 NaCl, 3 KCl, 150 Sucrose, 0,1 Ouabain, 20 Tris-hydroxymethylaminomethan) bei pH 7,4 und 37°C inkubiert. Die Erythrocyten wurden danach dreimal mit eiskalter MgCl2-Ouabain-Lösung (mmol/l: 112 MgCl2, 0,1 Ouabain) gewaschen und in 2,0 ml destilliertem Wasser hämolysiert. Der intrazelluläre Natriumgehalt wurde flammenphotometrisch bestimmt.
Der Na^+-Nettoinflux wurde aus der Differenz zwischen Natrium-Ausgangswerten und dem Natriumgehalt der Erythrocyten nach Inkubation errechnet. Der Amilorid-hemmbare Natrium-Influx ergab sich aus der Differenz des Natriumgehalts der Erythrocyten nach Inkubation mit und ohne Amilorid 3 x 10-4 mol/l. […]

T1 sequence (P23791 whole entry): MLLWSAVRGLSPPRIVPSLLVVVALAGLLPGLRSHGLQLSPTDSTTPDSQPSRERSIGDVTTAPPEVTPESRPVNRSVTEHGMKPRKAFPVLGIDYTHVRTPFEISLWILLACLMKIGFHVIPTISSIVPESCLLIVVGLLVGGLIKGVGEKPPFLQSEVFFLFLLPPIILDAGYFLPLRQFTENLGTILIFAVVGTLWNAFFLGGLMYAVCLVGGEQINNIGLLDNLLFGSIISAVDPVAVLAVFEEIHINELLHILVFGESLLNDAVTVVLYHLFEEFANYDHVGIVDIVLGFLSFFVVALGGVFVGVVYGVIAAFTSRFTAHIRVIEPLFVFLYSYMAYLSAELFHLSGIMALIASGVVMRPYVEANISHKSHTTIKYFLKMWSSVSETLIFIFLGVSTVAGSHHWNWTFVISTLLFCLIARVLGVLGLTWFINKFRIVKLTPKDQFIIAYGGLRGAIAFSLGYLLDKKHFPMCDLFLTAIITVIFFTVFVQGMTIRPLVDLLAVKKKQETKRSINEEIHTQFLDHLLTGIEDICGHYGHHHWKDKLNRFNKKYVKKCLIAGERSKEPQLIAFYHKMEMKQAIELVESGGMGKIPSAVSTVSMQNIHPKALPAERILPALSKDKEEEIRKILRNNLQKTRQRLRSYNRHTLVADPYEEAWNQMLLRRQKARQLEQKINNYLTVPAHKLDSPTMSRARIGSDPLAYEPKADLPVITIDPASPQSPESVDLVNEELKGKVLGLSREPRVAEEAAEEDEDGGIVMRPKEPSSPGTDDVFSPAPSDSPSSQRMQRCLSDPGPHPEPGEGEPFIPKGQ

IC50: 900 µM
Compound: NC(N)=NC(=O)c1cc(C(=O)N=C(N)N)c(Cl)c(-c2ccccc2)c1 [Beispiel 1, 4-Chlor-5-phenyl-isophthalsäure-diguanidid]
